{"source": "patent US20040053962A1", "about": "“Methods for inhibiting proliferation and inducing apoptosis in cancer cells” (priority 2003, published 2004)", "assay_type_in_all_cases": "cell-based", "key": {"[1]": {"system": "MiaPaCa-2 cells", "experiment": "DNA fragmentation assay (agarose gel), MiaPaCa-2", "conditions": "MiaPaCa-2, 250, 500 and 1000 nM for 48 hours; no ladder in control cells", "procedure": "DNA fragmentation assay. For analysis of DNA fragmentation by agarose gel electrophoresis, treated pancreatic cancer cells were detached from 75 cm^2 flask with trypsin-EDTA, washed twice with PBS, resuspended in 1 ml lysis buffer (25 mM EDTA, 10 mM Tris, 0.5% Triton X-100, and 1% SDS), and freeze-thawed at −80° C. overnight. Then, an equal volume of PEG/NaCl stock solution was added to the lysates to give a final concentration of 0.25% PEG and 1 M NaCl, and the tubes were centrifuged at 13,200 g at 4° C. for 30 minutes. The supernatants containing fragmented small molecular weight DNA were then incubated with RNAse A (0.3 mg/ml) at 37° C. for one hour and then with […] proteinase K (10 mg/ml) for three hours. Samples were then extracted with phenol-chloroform and precipitated with 70% ethanol overnight. The pellets containing DNA were then resuspended in […] of TE buffer, subjected to electrophoresis on a 1.8% agarose gel containing ethidium bromide ([…]), visualized by UV illumination, and analyzed using a Molecular Analyst Gel Documentation system (Bio-rad Laboratories, Hercules, Calif.)."}, "[2]": {"system": "pancreatic, colonic, and breast cancer cell lines", "experiment": "Proliferation by thymidine incorporation and cell number, all lines studied", "procedure": "DNA synthesis by [^3H]-Thymidine incorporation. Cells were plated in 12 or 24-well plates. After reaching 70% confluence, they were incubated in serum-free media for 24 hours, which was then replaced with fresh serum-free media with or without the appropriate concentration of leukotriene B4 receptor antagonist LY293111 (62.5-1000 nM), LTB4 (100-400 nM), or both. After the appropriate period of culture, cellular DNA synthesis was assayed by adding 0.5 μCi/well of [^3H]-methyl-thymidine and incubating for another 2 hours. Then, the cells were washed twice with PBS, fixed with 10% trichloroacetic acid (“TCA”) for 30 minutes, and solubilized by adding 0.4 M NaOH to each well. Radioactivity, indicating incorporation of ^3H-thymidine into DNA, was measured by adding a scintillation cocktail and counting on a scintillation counter (LKB RackBeta, Wallac, Turku, Finland)\nCell proliferation assay. Pancreatic cancer cells were seeded into 24-well microplates and incubated at 37° C. After 24 hours, cells were cultured in serum-free media with or without 250 nM LY293111 for 24, 48, and 72 hours. At the end of each time period, the cells were trypsinized to produce a single cell suspension, and the cell number in each well was determined using a Zi-Coulter Counter (Luton, Bedfordsire, United Kingdom). […]"}, "[3]": {"system": "MiaPaCa-2 pancreatic cancer cells", "experiment": "Cell proliferation assay (cell number, Coulter counter)", "conditions": "500 nM for 24, 48, and 72 hours (FIG. 2)", "procedure": "Cell culture. The following pancreatic cancer cell lines were used: MiaPaCa-2 and PANC-1 (poorly-differentiated); Capan-1 and Capan-2 (well-differentiated); and HPAF and AsPC-1 (pleomorphic). These were purchased from American Type Culture Collection (Rockville, Md.). PANC-1 and MiaPaCa-2 were grown in DMEM media; HPAF and AsPC-1 were grown in MEM media; and Capan-1 and Capan-2 were grown in-McCoy's media. Media were supplemented with 10% FBS, and the cells were grown as monolayers in a humidified atmosphere of […] and 5% CO2 at 37° C. The cells were regularly seeded into 75 cm^2 flask with media changed every other day. For experiments, cells were grown to 80% confluence, digested with trypsin-EDTA, and plated either in 12 or 24-well plates at a concentration of 50,000/ml, as appropriate.\nCell proliferation assay. Pancreatic cancer cells were seeded into 24-well microplates and incubated at 37° C. […] At the end of each time period, the cells were trypsinized to produce a single cell suspension, and the cell number in each well was determined using a Zi-Coulter Counter (Luton, Bedfordsire, United Kingdom)."}}, "data": [{"smiles": "CCCc1c(OCCCOc2cc(O)c(-c3ccc(F)cc3)cc2CC)cccc1Oc1ccccc1C(=O)O", "note": "[LY293111, 2-(2-propyl-3-(3-(2-ethyl-4-(4-fluorophenyl)-5-hydroxyphenoxy)propoxy)-phenoxy)benzoic acid]", "values": [{"measurement": "DNA fragmentation (apoptosis)", "setting": "[1]", "result": "distinctive DNA ladder"}, {"measurement": "effect on proliferation (thymidine incorporation and cell number)", "setting": "[2]", "result": "profound concentration-dependent and time-dependent inhibition of proliferation"}, {"measurement": "effect on cell number", "setting": "[3]", "result": "inhibition"}]}]}
